Species: Rattus norvegicus
Experiment: Open TG-GATES - Regimen: Daily Repeat
Assay type: toxicity, organism-based, Sprague-Dawley
Set-up: regimen Daily Repeat, gender Male, age 6 weeks
Details: in vivo, po, 60 mg/kg, route gavage, dose level Low; for APTT / Bas / Eos / Fbg / Hb / Ht / Lym / MCH / MCHC / MCV / Mono / Neu / PT / Plat / RBC / Ret / WBC: tissue Blood; for KIDNEY_L / KIDNEY_R / KIDNEY_TOTAL: tissue Kidney; for LIVER: tissue Liver; for A/G / ALP / ALT / AST / BUN / CRE / Ca / Cl / DBIL / GLC / IP / K / LDH / Na / PL / RALB / TBIL / TC / TG / TP / gamma-GTP: tissue Plasma

With `CCOC(=O)[C@H](CCc1ccccc1)N[C@@H](C)C(=O)N1CCC[C@H]1C(=O)O` the TERMINAL_BW (72 h, time 3 day) was 243.2 g, the APTT (72 h, time 3 day) was 16.2 s and the Bas (72 h, time 3 day) was 0%. For the same compound, the Eos (72 h, time 3 day) was 0.8%, the Fbg (72 h, time 3 day) was 233.6 mg/dL and the Hb (72 h, time 3 day) was 13.1 g/dL. The Ht (72 h, time 3 day) was 39.8%, the Lym (72 h, time 3 day) was 82.6% and the MCH (72 h, time 3 day) was 21.3 pg. The MCHC (72 h, time 3 day) was 32.9%, the MCV (72 h, time 3 day) was 64.8 fL and the Mono (72 h, time 3 day) was 5.2%. The Neu (72 h, time 3 day) was 11.4%, the PT (72 h, time 3 day) was 11.6 s and the Plat (72 h, time 3 day) was 124.4 x10_4/uL. It also gave an RBC (72 h, time 3 day) of 614.6 x10_4/ul, a Ret (72 h, time 3 day) of 5.5% and a WBC (72 h, time 3 day) of 105.6 x10_2/uL. For the same compound, the KIDNEY_L (72 h, time 3 day) was 1.1 g, the KIDNEY_R (72 h, time 3 day) was 1.1 g and the KIDNEY_TOTAL (72 h, time 3 day) was 2.2 g. The LIVER (72 h, time 3 day) was 11.8 g, the A/G (72 h, time 3 day) was 2 and the ALP (72 h, time 3 day) was 985.6 IU/L. For the same compound, the ALT (72 h, time 3 day) was 32.8 IU/L, the AST (72 h, time 3 day) was 63.2 IU/L and the BUN (72 h, time 3 day) was 20.2 mg/dL. The CRE (72 h, time 3 day) was 0.5 mg/dL, the Ca (72 h, time 3 day) was 10.9 mg/dL and the Cl (72 h, time 3 day) was 105.8 meq/L. For the same compound, the DBIL (72 h, time 3 day) was 0.028 mg/dL, the GLC (72 h, time 3 day) was 189.2 mg/dL and the IP (72 h, time 3 day) was 8 mg/dL. The K (72 h, time 3 day) was 5 meq/L, the LDH (72 h, time 3 day) was 90.6 IU/L and the Na (72 h, time 3 day) was 140.2 meq/L. It also gave a PL (72 h, time 3 day) of 160 mg/dL, an RALB (72 h, time 3 day) of 4 g/dL and a TBIL (72 h, time 3 day) of 0.3 mg/dL. For the same compound, the TC (72 h, time 3 day) was 81 mg/dL, the TG (72 h, time 3 day) was 93 mg/dL and the TP (72 h, time 3 day) was 6.1 g/dL. For the same compound, the gamma-GTP (72 h, time 3 day) was 2 IU/L, the TERMINAL_BW ([…], time 7 day) was 259.7 g and the TERMINAL_BW ([…], time 14 day) was 311.1 g. It also gave a TERMINAL_BW ([…], time 28 day) of 389.4 g, an APTT ([…], time 7 day) of 15.6 s and a Bas ([…], time 7 day) of 0%. The Eos ([…], time 7 day) was 0.6%, the Fbg ([…], time 7 day) was 232 mg/dL and the Hb ([…], time 7 day) was 13.5 g/dL. The Ht ([…], time 7 day) was 40.7%, the Lym ([…], time 7 day) was 84.6% and the MCH ([…], time 7 day) was 20.6 pg. The MCHC ([…], time 7 day) was 33.2%, the MCV ([…], time 7 day) was 61.9 fL and the Mono ([…], time 7 day) was 5%. It also gave a Neu ([…], time 7 day) of 9.2%, a PT ([…], time 7 day) of 11.6 s and a Plat ([…], time 7 day) of 124.1 x10_4/uL. For the same compound, the RBC ([…], time 7 day) was 658.4 x10_4/ul, the Ret ([…], time 7 day) was 4.8% and the WBC ([…], time 7 day) was 134.2 x10_2/uL. The APTT ([…], time 14 day) was 16.1 s, the Bas ([…], time 14 day) was 0% and the Eos ([…], time 14 day) was 1.2%. It also gave a Fbg ([…], time 14 day) of 247.4 mg/dL, a Hb ([…], time 14 day) of 14.3 g/dL and a Ht ([…], time 14 day) of 43%. For the same compound, the Lym ([…], time 14 day) was 76%, the MCH ([…], time 14 day) was 20.1 pg and the MCHC ([…], time 14 day) was 33.2%. The MCV ([…], time 14 day) was 60.7 fL, the Mono ([…], time 14 day) was 6.6% and the Neu ([…], time 14 day) was 16.2%. It also gave a PT ([…], time 14 day) of 11.3 s, a Plat ([…], time 14 day) of 118.7 x10_4/uL and an RBC ([…], time 14 day) of 710.6 x10_4/ul. The Ret ([…], time 14 day) was 3.5%, the WBC ([…], time 14 day) was 107.1 x10_2/uL and the APTT ([…], time 28 day) was 16.8 s. For the same compound, the Bas ([…], time 28 day) was 0%, the Eos ([…], time 28 day) was 1% and the Fbg ([…], time 28 day) was 252.6 mg/dL. The Hb ([…], time 28 day) was 15.1 g/dL, the Ht ([…], time 28 day) was 45.4% and the Lym ([…], time 28 day) was 85.6%. It also gave an MCH ([…], time 28 day) of 19.3 pg, an MCHC ([…], time 28 day) of 33.3% and an MCV ([…], time 28 day) of 58 fL. For the same compound, the Mono ([…], time 28 day) was 4.4%, the Neu ([…], time 28 day) was 8.8% and the PT ([…], time 28 day) was 11.6 s. The Plat ([…], time 28 day) was 108.6 x10_4/uL, the RBC ([…], time 28 day) was 782.8 x10_4/ul and the Ret ([…], time 28 day) was 3.5%. For the same compound, the WBC ([…], time 28 day) was 132.2 x10_2/uL, the KIDNEY_L ([…], time 7 day) was 1.1 g and the KIDNEY_R ([…], time 7 day) was 1.1 g. For the same compound, the KIDNEY_TOTAL ([…], time 7 day) was 2.3 g, the KIDNEY_L ([…], time 14 day) was 1.3 g and the KIDNEY_R ([…], time 14 day) was 1.3 g. The KIDNEY_TOTAL ([…], time 14 day) was 2.5 g, the KIDNEY_L ([…], time 28 day) was 1.5 g and the KIDNEY_R ([…], time 28 day) was 1.5 g. For the same compound, the KIDNEY_TOTAL ([…], time 28 day) was 3 g, the LIVER ([…], time 7 day) was 12.2 g and the LIVER ([…], time 14 day) was 13.6 g. The LIVER ([…], time 28 day) was 16.3 g, the A/G ([…], time 7 day) was 2.1 and the ALP ([…], time 7 day) was 880.6 IU/L. For the same compound, the ALT ([…], time 7 day) was 32.6 IU/L, the AST ([…], time 7 day) was 61.8 IU/L and the BUN ([…], time 7 day) was 21.2 mg/dL. The CRE ([…], time 7 day) was 0.6 mg/dL, the Ca ([…], time 7 day) was 10.9 mg/dL and the Cl ([…], time 7 day) was 104 meq/L. For the same compound, the DBIL ([…], time 7 day) was 0.002 mg/dL, the GLC ([…], time 7 day) was 209.2 mg/dL and the IP ([…], time 7 day) was 8.6 mg/dL. For the same compound, the K ([…], time 7 day) was 5 meq/L, the LDH ([…], time 7 day) was 116.2 IU/L and the Na ([…], time 7 day) was 138 meq/L. The PL ([…], time 7 day) was 168.4 mg/dL, the RALB ([…], time 7 day) was 4 g/dL and the TBIL ([…], time 7 day) was 0.3 mg/dL. The TC ([…], time 7 day) was 88.8 mg/dL, the TG ([…], time 7 day) was 121.2 mg/dL and the TP ([…], time 7 day) was 5.9 g/dL. The gamma-GTP ([…], time 7 day) was 1 IU/L, the A/G ([…], time 14 day) was 1.8 and the ALP ([…], time 14 day) was 821.6 IU/L. The ALT ([…], time 14 day) was 34.4 IU/L, the AST ([…], time 14 day) was 65.2 IU/L and the BUN ([…], time 14 day) was 24.4 mg/dL. The CRE ([…], time 14 day) was 0.6 mg/dL, the Ca ([…], time 14 day) was 10.8 mg/dL and the Cl ([…], time 14 day) was 106 meq/L. It also gave a DBIL ([…], time 14 day) of 0 mg/dL, a GLC ([…], time 14 day) of 199.2 mg/dL and an IP ([…], time 14 day) of 8.4 mg/dL. The K ([…], time 14 day) was 5 meq/L, the LDH ([…], time 14 day) was 105.2 IU/L and the Na ([…], time 14 day) was 138.4 meq/L. The PL ([…], time 14 day) was 155.4 mg/dL, the RALB ([…], time 14 day) was 4 g/dL and the TBIL ([…], time 14 day) was 0.3 mg/dL. The TC ([…], time 14 day) was 73.2 mg/dL, the TG ([…], time 14 day) was 113.2 mg/dL and the TP ([…], time 14 day) was 6.3 g/dL. For the same compound, the gamma-GTP ([…], time 14 day) was 1.4 IU/L, the A/G ([…], time 28 day) was 1.8 and the ALP ([…], time 28 day) was 658.6 IU/L. For the same compound, the ALT ([…], time 28 day) was 31.6 IU/L, the AST ([…], time 28 day) was 61.4 IU/L and the BUN ([…], time 28 day) was 20.8 mg/dL. For the same compound, the CRE ([…], time 28 day) was 0.6 mg/dL, the Ca ([…], time 28 day) was 10.8 mg/dL and the Cl ([…], time 28 day) was 105.8 meq/L. The DBIL ([…], time 28 day) was 0.046 mg/dL, the GLC ([…], time 28 day) was 198.6 mg/dL and the IP ([…], time 28 day) was 7.3 mg/dL. For the same compound, the K ([…], time 28 day) was 4.8 meq/L, the LDH ([…], time 28 day) was 66.4 IU/L and the Na ([…], time 28 day) was 137.6 meq/L. For the same compound, the PL ([…], time 28 day) was 144.4 mg/dL, the RALB ([…], time 28 day) was 4.1 g/dL and the TBIL ([…], time 28 day) was 0.3 mg/dL. For the same compound, the TC ([…], time 28 day) was 69.2 mg/dL, the TG ([…], time 28 day) was 90.2 mg/dL and the TP ([…], time 28 day) was 6.4 g/dL. The gamma-GTP ([…], time 28 day) was 1.2 IU/L.
